The values that follow come from US8962627B2, “Oxime derivatives and their use as allosteric modulators of metabotropic glutamate receptors” (Prestwick Chemical, Inc., priority 2009, dated 2015).

As usually defined, the melting point is the temperature of the solid-liquid transition.

In data set [1] the target is T1, human mGluR4 transiently over-expressed in HEK-293 cells (Homo sapiens, UniProt Q14833).
T1 construct: expressed in transfected cells; host or cells: HEK-293 cells, transient co-transfection by electroporation
Kind of data set: Human mGluR4 positive allosteric modulator evaluation using Ca++ functional assay. It counts as cell-based. The settings on record: for pEC50: HEK-293 cells co-transfected with hmGluR4 and chimeric G protein, EC10 glutamate, intracellular calcium (Fluo4AM), read-out: mean EC50 of agonist/positive allosteric modulator activity on mGluR4. On the procedure:
Human mGluR4 Positive Allosteric Modulator Evaluation Using Ca^++ Functional Assay
Compounds of the present invention were tested successively for their agonist and positive allosteric modulator activities on human mGluR4 transiently over-expressed in HEK-293 cells. They exert agonist activity if, by themselves in absence of the endogenous glutamate, they are able to activate mGluR4; and they exert positive allosteric modulator activity if they increase the action of the endogenous glutamate.
Cell Culture and Transfection
HEK-293 cells were maintained in Modified Eagle's Medium supplemented with 10% Foetal Calf Serum, 1% Penicillin/Streptomycin and 1% non essential amino acids at 37° C./5% CO2.
Cells were co-transfected by electroporation with two DNA plasmids encoding hmGluR4 and a chimeric G protein allowing redirection of the activation signal to intracellular calcium pathway. Cells were plated after transfection onto polyornithine coated, clear bottom, black-walled, 96-well plates and cultured for 24 h.
Calcium Assay EC50 Determination
Receptor activity was detected by changes in intracellular calcium measured using the fluorescent Ca^2+ sensitive dye, Fluo4AM (Molecular Probes).
The day of the assay, medium was aspirated and replaced during 3 hours by medium without serum supplemented with 1% Glutamax, 1% Penicillin/Streptomycin and 1% non essential amino acids. Then, cells were washed with freshly prepared buffer B (HBSS 1×(PAA), Hepes 20 mM, MgSO4-7H2O 1 mM, Na2CO3 3.3 mM, CaCl2-2H2O 1.3 mM, 0.5% BSA, Probenecid 2.5 mM) and loaded at 37° C. in 5% CO2 for 1.5 hours with buffer B containing 1 μM Fluo4AM 0.1 mg/mL Pluronic Acid, 7 μg/mL Glutamate Pyruvate Transaminase and 2 mM sodium pyruvate. Afterwards cells were washed twice with buffer B and 50 μL of this buffer were added to each well. Addition of compounds and intracellular Ca^2+ measurements (excitation 485 nm, emission 525 nm) were performed by the fluorescence microplate reader FlexStation (Molecular Devices).
Agonist and positive allosteric modulator activities of compounds were consecutively evaluated on the same cells plate. Agonist activity was first tested during 60 s with the addition of compound alone on the cells. Then, the cells were stimulated by an EC10 glutamate concentration and fluorescence recorded for additional 60 s. EC10 glutamate concentration is the concentration giving 10% of the maximal glutamate response. Agonist and/or positive allosteric modulator activity(ies) were evaluated in comparison to basal signal evoked by EC10 glutamate alone.
For EC50 determination, a dose-response test was performed using 6 to 9 concentrations of each compound of the invention. Dose-response curves were fitted using the sigmoidal dose-response (variable slope) analysis in GraphPad Prism program (Graph Pad Inc) and EC50 of agonist/positive allosteric modulator activity was calculated. Dose-response experiments were all performed in duplicate, two times independently.
On the technique in general: A change in cytosolic calcium serves as a functional read-out for many receptors and channels.

pEC50: −log10 of the molar value. A value given as a limit tells only on which side of the number the result lay.

T1 sequence (Q14833 33-912): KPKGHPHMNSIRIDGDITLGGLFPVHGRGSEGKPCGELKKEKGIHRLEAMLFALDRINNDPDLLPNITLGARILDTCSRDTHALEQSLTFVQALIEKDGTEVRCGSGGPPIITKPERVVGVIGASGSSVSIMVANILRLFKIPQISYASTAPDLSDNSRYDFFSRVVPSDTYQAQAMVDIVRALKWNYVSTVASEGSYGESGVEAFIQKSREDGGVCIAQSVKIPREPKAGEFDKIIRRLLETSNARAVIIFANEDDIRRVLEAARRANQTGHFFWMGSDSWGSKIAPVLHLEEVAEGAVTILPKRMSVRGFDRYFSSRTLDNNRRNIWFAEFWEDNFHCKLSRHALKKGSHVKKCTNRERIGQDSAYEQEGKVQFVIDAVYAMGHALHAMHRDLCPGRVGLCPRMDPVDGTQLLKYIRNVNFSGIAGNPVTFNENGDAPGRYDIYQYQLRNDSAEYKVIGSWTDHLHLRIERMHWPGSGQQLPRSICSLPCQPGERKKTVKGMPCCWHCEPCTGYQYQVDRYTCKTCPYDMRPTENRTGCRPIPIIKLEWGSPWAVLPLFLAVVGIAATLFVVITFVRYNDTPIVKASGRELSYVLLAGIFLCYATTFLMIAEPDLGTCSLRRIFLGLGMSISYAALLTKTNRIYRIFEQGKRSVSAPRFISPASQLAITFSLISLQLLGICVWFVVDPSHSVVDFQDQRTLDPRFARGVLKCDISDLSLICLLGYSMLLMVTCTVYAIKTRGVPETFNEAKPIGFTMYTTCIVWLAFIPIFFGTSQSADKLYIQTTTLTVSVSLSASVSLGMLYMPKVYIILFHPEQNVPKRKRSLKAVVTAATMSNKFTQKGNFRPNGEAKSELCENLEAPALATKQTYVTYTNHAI

`COc1cccc2oc(-c3cc4cccn4cn3)cc(=NO)c12` [Example 139, 5-Methoxy-2-pyrrolo[1,2-c]pyrimidin-3-yl-chromen-4-one oxime]: the melting point is 240 to 243 °C. The pEC50 in data set [1] was greater than 6.00.
`Cl.ON=c1cc(-c2cc3sccc3cn2)oc2ccc(OCCn3ccnc3)cc12` [Example 129, 6-(2-imidazol-1-yl-ethoxy)2-thieno[3,2-c]pyridin-6-yl-chromen-4-one oxime, hydrochloride] had a melting point of 218 to 220 °C. For the same compound, the pEC50 in data set [1] was greater than 6.00.
As for `COCCOc1cccc(C#Cc2ccc3c(=NO)cc(-c4cc5ccccc5cn4)oc3c2)c1` (mixture of isomers) [Example 53, 2-Isoquinolin-3-yl-7-[3-(2-methoxy-ethoxy)-phenylethynyl]-chromen-4-one oxime], the melting point lay in the range of 155 to 160 °C. Also, the pEC50 in data set [1] is greater than 6.00.
Turning to `Cl.ON=c1cc(-c2cc3cccn3cn2)oc2ccc(CCCCN3CCOCC3)cc12` [Example 102, 6-(4-morpholin-4-yl-butyl)-2-pyrrolo[1,2-c]pyrimidin-3-yl-chromen-4-one oxime, hydrochloride], the melting point is 180 to 185 °C. The pEC50 in data set [1] is greater than 6.00.
The corresponding values for `ON=c1cc(-c2cc3cccn3cn2)oc2ccc(OCCOc3cccnc3)cc12` [Example 148, 6-[2-(Pyridin-3-yloxy)-ethoxy]-2-pyrrolo[1,2-c]pyrimidin-3-yl-chromen-4-one oxime] are 170 to 175 °C and greater than 6.00.
Compound `COCCN(CCOC)CCOc1ccc2oc(-c3cc4cccn4cn3)cc(=NO)c2c1.Cl` [Example 104, 6-(2-[bis-(2-methoxy-ethyl)-amino]-ethoxy)-2-pyrrolo[1,2-c]pyrimidin-3-yl-chromen-4-one oxime, hydrochloride] yielded a melting point of 155 to 160 °C. The pEC50 in data set [1] was greater than 6.00.
The corresponding values for `CN1CCCN(CCOc2ccc3oc(-c4cc5cccn5cn4)cc(=NO)c3c2)CC1.Cl.Cl` [Example 94, 6-[2-(4-methyl-[1,4]diazepan-1-yl)-ethoxy]-2-pyrrolo[1,2-c]pyrimidin-3-yl-chromen-4-one oxime, dihydrochloride] are > 210 °C (dec.) and greater than 6.00.
For the compound `ON=c1cc(-c2ccncn2)oc2ccccc12` [Example 80, 2-Pyrimidin-4-yl-chromen-4-one oxime], the melting point was in the range of 208 to 211 °C. Further, in data set [1] (up to 100 μM), the “PAM activity on mGluR4” value is “no PAM activity”.
In turn, `ON=c1cc(-c2cc3cccn3cn2)oc2ccc(OCCc3ccccc3)cc12` [Example 146, 6-Phenethyloxy-2-pyrrolo[1,2-c]pyrimidin-3-yl-chromen-4-one oxime] had a melting point of 210 °C. The pEC50 in data set [1] was greater than 6.00.
Take `ON=c1cc(-c2cc3cccn3cn2)oc2ccc(OCCOc3ccccc3)cc12` [Example 160, 6-(2-Phenoxy-ethoxy)-2-pyrrolo[1,2-c]pyrimidin-3-yl-chromen-4-one oxime]: the melting point is 210 to 215 °C. The pEC50 in data set [1] was greater than 6.00.
On to `COC[C@H]1CCCN1CCOc1ccc2oc(-c3cc4cccn4cn3)cc(=NO)c2c1.Cl` [Example 97, 6-[2-((R)-2-methoxymethylpyrrolidin-1-yl)-ethoxy]-2-pyrrolo[1,2-c]pyrimidin-3-yl-chromen-4-one oxime, hydrochloride], for which the melting point is 210 °C (dec.). Moreover, in data set [1], the pEC50 was greater than 6.00.
For the compound `Cl.ON=c1cc(-c2cc3sccc3cn2)oc2ccc(OCCCc3cccnc3)cc12` [Example 135, 6-(3-Pyridin-3-yl-propoxy)-2-thieno[3,2-c]pyridin-6-yl-chromen-4-one oxime, hydrochloride], the melting point fell in the range of 252 to 254 °C. The pEC50 in data set [1] was greater than 6.00.
Take `COn1ccc2cc(-c3cc(=NO)c4ccccc4o3)ncc21` [Example 78, 2-(1-Methoxy-1H-pyrrolo[2,3-c]pyridin-5-yl)-chromen-4-one oxime]: in data set [1], the pEC50 was greater than 5.30.
